According to ChEMBL document CHEMBL3120134, “A review of non-nucleoside anti-hepatitis B virus agents” (Eur J Med Chem, 2014):
pEC50, pIC50: −log10 of the molar value. In brackets after ≈: the same amount, converted by molar mass. Blank lines part the entries; values can stand above or below the compound they belong to.

How the values were obtained:
[1] = system: Hepatitis B virus; assay: Antiviral activity against Hepatitis B virus assessed as inhibition of Hepatitis B virus DNA replication; assay type: functional, organism-based
[2] = system: Hepatitis B virus; assay: Antiviral activity against Hepatitis B virus; assay type: functional, organism-based
[3] = system: Hepatitis B virus; assay: Antiviral activity against Hepatitis B virus infected in human HepG2.2.15 cells assessed as decrease in HBV surface antigen secretion; assay type: functional, organism-based, HepG2 2.2.15; details: for pIC50: Hepatitis B virus, HepG2 2.2.15
[4] = system: Hepatitis B virus; assay: Antiviral activity against Hepatitis B virus infected in human HepG2.2.15 cells assessed as decrease in HBV e antigen secretion; assay type: functional, organism-based, HepG2 2.2.15
[5] = Selectivity index, ratio of cytotoxicity towards human HepG2.2.15 cells to IC50 for HBV e antigen secretion; assay type: toxicity, cell-based; details: read-out: Selectivity Index
[6] = system: Hepatitis B virus; assay: Antiviral activity against Hepatitis B virus infected in human HepG2.2.15 cells assessed as decrease in HBV surface antigen secretion by ELISA; assay type: functional, organism-based; details: HepG2 2.2.15
[7] = system: Hepatitis B virus; assay: Antiviral activity against Hepatitis B virus infected in human HepG2.2.15 cells assessed as decrease in HBV e antigen secretion by ELISA; assay type: functional, organism-based; details: HepG2 2.2.15
[8] = system: Hepatitis B virus; assay: Antiviral activity against Hepatitis B virus infected in human HepG2.2.15 cells assessed as decrease in HBV DNA production by quantitative RT-PCR analysis; assay type: functional, organism-based; details: HepG2 2.2.15
[9] = system: Hepatitis B virus; assay: Antiviral activity against Hepatitis B virus infected in human Huh7 cells assessed as inhibition of HBV particles production; assay type: functional, organism-based; details: Huh-7
[10] = system: Hepatitis B virus; assay: Antiviral activity against Hepatitis B virus infected in human HepG2.2.15 cells assessed as decrease in HBV DNA production; assay type: functional, organism-based; details: HepG2 2.2.15
[11] = system: Hepatitis B virus; assay: Antiviral activity against Hepatitis B virus assessed as inhibition of interaction between Trx-PreS and HBcAg; assay type: functional, organism-based
[12] = system: Hepatitis B virus; assay: Antiviral activity against Hepatitis B virus infected in human HepG2.2.15 cells assessed as decrease in HBV surface antigen secretion after 21 days; assay type: functional, organism-based; details: HepG2 2.2.15, 504 h
[13] = Selectivity index, ratio of cytotoxicity towards human HepG2.2.15 cells to IC50 for HBV DNA production; assay type: toxicity, cell-based; details: read-out: Selectivity Index
[14] = system: Hepatitis B virus; assay: Antiviral activity against Hepatitis B virus assessed as inhibition of virion production; assay type: functional, organism-based

SMILES: COC(=O)c1nc(-c2csc([C@@H](NC(=O)c3cccs3)C(C)C)n2)oc1C
pIC50 [1]: 4.12

SMILES: NC(=O)c1cc2ccc3c(c2c(-c2ccc4c(c2)OCO4)c1C(=O)O)OCO3
pEC50 [2]: 6.10

SMILES: COC(=O)C1=C(C)NC(c2nccs2)=N[C@H]1c1ccc(F)cc1Cl
pIC50 [1]: 7.52

SMILES: COc1cc2c(cc1OC)-c1c(C)c3ccc4c(c3c[n+]1CC2)OCO4.[OH-]
inhibition (INH) [3]: 50%
inhibition (INH) [4]: 40%

SMILES: CCOC(=O)c1nc(-c2nccs2)sc1CC(C)C
pIC50 [1]: 5.96

SMILES: O=Cc1ccc(O)c(O)c1 [PROTOCATECHUALDEHYDE]
EC50 [6]: 3.94 µg/mL (≈ 28.5 µM)
EC50 [7]: 2.46 µg/mL (≈ 17.8 µM)
IC50 [8]: 4.17 µg/mL (≈ 30.2 µM)

SMILES: COc1ccc2c(c1)-c1nc3c(CN4CCCCC4)c(O)c(OC)cc3cc1CS2
pIC50 [10]: > 5.00

SMILES: O=c1[nH][nH]c(=O)c2c(-c3ccc4c(c3)OCO4)c3c4c(ccc3cc12)OCO4
pEC50 [2]: 7.52

SMILES: C[C@@H]1CC[C@H]2[C@@H](C)C(=O)O[C@@H]3O[C@@]4(C)CC[C@@H]1[C@]32OO4 [ARTEMISININ]
pIC50 [12]: 4.26

SMILES: CC(=O)O[C@H]([C@@H](O)C[C@@H](C)C1=C2C[C@H](O)[C@H]3[C@@]4(C)CCC(=O)C(C)(C)[C@@H]4CC[C@]3(C)[C@@]2(C)CC1)C(C)(C)O
pIC50 [3]: 6.22

SMILES: O=C(Nc1ncc(Cl)s1)c1ccccc1O
pEC50 [2]: 6.92

SMILES: CCOC(=O)c1c(C[S+]([O-])c2ccc(F)cc2)n(C)c2cc(Br)c(O)c(CN3CCOCC3)c12 (stereo unspecified)
IC50 [2]: < 60 µg/mL

SMILES: COC(=O)C1=C(C)NC(c2ncccc2F)=N[C@@H]1c1ccc(F)cc1Cl
pIC50 [1]: 6.82

SMILES: CCN(CC)Cc1c(O)c(OC)cc2nc3c(cc12)CSc1ccc(C)cc1-3
pIC50 [10]: > 5.00

SMILES: C=C(C)[C@H](O)[C@@H](O)C[C@@H](C)C1=C2C[C@H](O)[C@H]3[C@@]4(C)CCC(=O)C(C)(C)[C@@H]4CC[C@]3(C)[C@@]2(C)CC1
pIC50 [3]: 6.22

SMILES: COc1cc2c(cc1O)-c1c(C)c3ccc4c(c3c[n+]1CC2)OCO4.[OH-]
inhibition (INH) [3]: 50%
inhibition (INH) [4]: 40%

SMILES: COc1cc2c(cc1O)CC[n+]1cc3c4c(ccc3c(C)c1-2)OCO4.[OH-]
inhibition (INH) [3]: 50%
inhibition (INH) [4]: 40%

SMILES: CCOC(=O)c1c(CS(=O)(=O)c2cccc(OC)c2)n(C)c2ccc(O)c(CN3CCCC3)c12
IC50 [2]: < 60 µg/mL

The next lines start with results.

pIC50 [3]: 6.22
pIC50 ([4]; Hepatitis B virus, HepG2 2.2.15): 5.29
SMILES: CC(=O)O[C@H]([C@@H]1C[C@@H](C)C2=C3C[C@H](O)[C@H]4[C@@]5(C)CCC(=O)C(C)(C)[C@@H]5CC[C@]4(C)[C@@]3(C)C[C@@H]2O1)C(C)(C)O
selectivity ratio [5]: 18.5

pIC50 [9]: 6.92
SMILES: Cc1cc(C)n2nc(S)nc2c1

pIC50 [11]: 5.27
SMILES: O=C1OC(OCc2ccccc2)=N/C1=C\c1ccccc1

pIC50 [1]: 6.85
SMILES: CCOC(=O)c1nc(-c2ncc(C)s2)sc1CC(C)C

pIC50 [10]: 5.77
SMILES: COc1cc2cc3c(nc2c(Cn2ccnc2C)c1O)-c1ccc(F)cc1SC3
selectivity ratio [13]: 60.3

pIC50 [1]: 5.62
SMILES: COC(=O)c1nc(-c2nccs2)sc1CC(C)C

pEC50 [14]: 5.79
SMILES: CCC(c1nnc(SCCN2CCN(c3ccccc3OC)CC2)o1)S(=O)(=O)c1ccccc1 (stereo unspecified)

pIC50 [1]: 4.22
SMILES: CC(C)Cc1sc(-c2nccs2)nc1C(=O)O

pIC50 [2]: 4.40
SMILES: Nn1c(SC(c2ccccc2)c2ccccc2)nnc1-c1ccc(Cl)cc1

pIC50 [10]: > 5.00
SMILES: COc1cc2cc3c(nc2c(CN2CCCC2)c1O)-c1ccc(C)cc1SC3
